Values of other authors as cited in patent US20210236523A1, “P[…] FOR HEADACHE DISORDERS” (priority 2020, published 2021).
“Also recorded” adds a separate entry of the source.

Tests used:
[1] = system: cluster headache; settings: et al., cited from earlier work
[2] = system: 5-HT1; settings: cited from earlier work
[3] = system: dopamine receptor; settings: cited from earlier work
[4] = target: 5-HT2B (Homo sapiens, UniProt P41595); settings: cited from earlier work
[5] = target: 5-HT2A (Homo sapiens, UniProt P28223); settings: cited from earlier work
Sequence of 5-HT2A (P28223 whole entry): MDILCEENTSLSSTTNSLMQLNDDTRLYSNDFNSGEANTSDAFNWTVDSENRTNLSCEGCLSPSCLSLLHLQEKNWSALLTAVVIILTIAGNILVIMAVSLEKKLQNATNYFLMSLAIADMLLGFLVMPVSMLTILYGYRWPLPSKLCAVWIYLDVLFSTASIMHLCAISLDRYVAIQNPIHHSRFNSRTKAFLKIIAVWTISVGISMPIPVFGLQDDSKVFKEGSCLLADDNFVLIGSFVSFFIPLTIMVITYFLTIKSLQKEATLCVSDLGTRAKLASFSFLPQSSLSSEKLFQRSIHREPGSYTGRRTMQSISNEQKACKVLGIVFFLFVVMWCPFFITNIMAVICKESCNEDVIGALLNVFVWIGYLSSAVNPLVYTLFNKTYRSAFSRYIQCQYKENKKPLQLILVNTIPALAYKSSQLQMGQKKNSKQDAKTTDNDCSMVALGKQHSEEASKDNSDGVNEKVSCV

Sequence of 5-HT2B (P41595 whole entry, species assumed): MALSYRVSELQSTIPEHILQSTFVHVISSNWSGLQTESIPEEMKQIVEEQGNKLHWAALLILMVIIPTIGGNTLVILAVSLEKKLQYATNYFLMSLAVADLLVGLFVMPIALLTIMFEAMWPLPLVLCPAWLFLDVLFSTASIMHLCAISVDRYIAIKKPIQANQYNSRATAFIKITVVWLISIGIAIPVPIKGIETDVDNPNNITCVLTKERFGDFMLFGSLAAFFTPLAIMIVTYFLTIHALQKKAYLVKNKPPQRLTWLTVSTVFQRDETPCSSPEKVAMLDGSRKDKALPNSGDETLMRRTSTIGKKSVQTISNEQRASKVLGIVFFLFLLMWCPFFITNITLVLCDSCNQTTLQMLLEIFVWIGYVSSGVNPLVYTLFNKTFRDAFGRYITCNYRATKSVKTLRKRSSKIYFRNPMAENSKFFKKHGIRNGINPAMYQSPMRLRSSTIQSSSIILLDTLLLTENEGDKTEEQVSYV

SMILES: CCN(CC)C(=O)[C@@H]1C=C2c3cccc4[nH]c(Br)c(c34)C[C@H]2N(C)C1 [BOL-148, 2-bromo-lysergic acid diethylamide]
- effect on cluster headache cycle and attacks ([1]; three single oral doses of 30 μg/kg, Karst, 2010): either break a cluster headache cycle or considerably improve the frequency and intensity of attacks

SMILES: CCN(CC)C(=O)[C@@H]1C=C2c3cccc4[nH]cc(c34)C[C@H]2N(C)C1 [LSD, lysergic acid diethylamide]
- reported effects in cluster headache ([1]; Sewell, 2006, Schindler et al., 2015): stop acute cluster attacks, terminate cluster cycles, and induce and prolong remission from cluster headache

SMILES: CN(C)CCc1c[nH]c2cccc(O)c12 [psilocin]
- affinity for 5-HT1 [2]: low affinity
- effect on the dopamine receptor [3]: no effect
- affinity for 5-HT2B [4]: high affinity
- affinity for 5-HT2A [5]: high affinity; also recorded: modest affinity
